The text below walks through data of PubChem BioAssay AID977613 (Broad Institute, 2014).

This assay deals with Broad 7084-01 inhibitor HTS, set 2. Put plainly: single-concentration hits, screen 7084 set 2 (AID 977613).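 Note: host cells are infected with parasite promastigotes that become internalized.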

Calls of active or inactive are those of the source. The rule behind the calls is not given here.

Take `O=C1CNC[C@H]2[C@@H](c3ccc(C4=CCCC4)cc3)[C@H](CO)N12`: the active concentration was > 10 µM (inactive). For `CCNC(=O)Nc1ccc2c(c1)C(=O)N(C)[C@H]1CC[C@@H](CC(=O)N[C@@H](C)c3ccccc3)O[C@H]1CO2`, the active concentration was > 10 µM (inactive). In the case of `COc1cccc(C#Cc2ccc3c(c2)[C@@H]2[C@@H](CCN2C(=O)CC2CC2)[C@@H](CO)N3)c1` it was > 10 µM (inactive); in that of `O=C([C@H]1[C@H](CO)[C@H]2Cn3c(ccc(-c4ccccc4F)c3=O)[C@@H]1N2C(=O)C1CCC1)N1CCCCC1`, > 10 µM (inactive); in that of `CN1c2ccc(Br)cc2[C@H]2[C@H](CCN2C(=O)Nc2ccccc2F)[C@H]1CO`, > 10 µM (inactive).

Regarding `O=C(C[C@@H]1CC[C@@H]2[C@H](COC[C@H](O)CN2C(=O)Nc2ccc(Cl)cc2)O1)NCC1CC1`, the active concentration is > 10 µM (inactive). As to `CCS(=O)(=O)N1CCC2(CC1)CN[C@@H](CO)c1[nH]c3cc(OC)ccc3c12`, the active concentration is > 10 µM (inactive). With `N#C[C@H]1[C@H](c2ccccc2-c2cccc(F)c2)[C@@H](CO)N1C(=O)CN1CCOCC1`, the active concentration was > 10 µM (inactive). On to `O=C(c1cccc(F)c1)N1CCCCN2[C@H](CO)[C@H](c3ccc(C#CC4(O)CCCC4)cc3)[C@H]2C1`, for which the active concentration is > 10 µM (inactive). With `COC(=O)C[C@@H]1CC[C@@H]2[C@H](COc3ccc(NS(=O)(=O)c4ccccc4Cl)cc3C(=O)N2C)O1`, the active concentration is > 10 µM (inactive). As for `CS(=O)(=O)N1C[C@H](O)COC[C@@H]2O[C@H](CC(=O)NCc3ccc(-c4ccccc4)cc3)CC[C@H]21`, the active concentration is > 10 µM (inactive). In the case of `COc1cccc(C(=O)Nc2ccc3c(c2)C(=O)N(C)[C@H]2CC[C@H](CC(=O)NCCCN4CCOCC4)O[C@H]2CO3)c1` it was > 10 µM (inactive); in that of `O=S(=O)(c1ccc(F)cc1)N1CCCCN2[C@@H](CO)[C@@H](c3ccc(-c4cncnc4)cc3)[C@@H]2C1`, > 10 µM (inactive); in that of `COc1ccc(NC(=O)N2CCCCN3[C@H](CO)[C@@H](c4ccc(-c5ccccc5F)cc4)[C@@H]3C2)cc1`, > 10 µM (inactive). In the case of `COc1ccccc1S(=O)(=O)N1CC[C@H]2[C@H](CO)Nc3ccc(-c4ccc(C#N)cc4)cc3[C@H]21` it was > 10 µM (inactive); in that of `O=C(Nc1ccccc1)N1C[C@H]2[C@@H](c3ccccc31)[C@H](CO)N2Cc1ccccc1Cl`, > 10 µM (inactive); in that of `O=C(CC1CC1)N1[C@H](CO)[C@@H](c2ccccc2)C12CN(Cc1ccccc1F)C2`, > 10 µM (inactive).

Consider `CCC(=O)N1[C@@H]2Cn3c(ccc(-c4ccc(F)cc4)c3=O)[C@H]1[C@@H](C(=O)OC)[C@@H]2CO`, for which the active concentration was > 10 µM (inactive).

With `O=C(c1cnccn1)N1CC[C@@H]2[C@H]1c1cc(-c3ccccc3F)ccc1N[C@@H]2CO`, the active concentration is > 10 µM (inactive). As for `O=C(c1cnccn1)N1CC[C@@H]2[C@H](CO)Nc3ccc(-c4ccccc4F)cc3[C@@H]21`, the figure is > 10 µM (inactive); as for `CS(=O)(=O)N1[C@@H]2c3ccc(C4=CCCC4)c(=O)n3C[C@@H]2[C@@H](CO)[C@@H]1C(=O)NCCc1ccncc1`, > 10 µM (inactive); as for `O=C(C[C@@H]1CC[C@@H]2[C@H](COC[C@H](O)CN2Cc2nccs2)O1)NCc1ccccc1`, > 10 µM (inactive). In the case of `CN(C)C(=O)C[C@H]1CC[C@H]2[C@@H](COC[C@@H](O)CN2C(=O)C2CC2)O1` it was > 10 µM (inactive); in that of `COc1ccc(CN2[C@@H]3CN(C(=O)Nc4ccc(F)cc4)c4ccccc4[C@@H]3[C@@H]2CO)cc1`, > 10 µM (inactive); in that of `CCCC#Cc1ccc([C@H]2[C@H]3CN(C(=O)CN4CCOCC4)CC(=O)N3[C@H]2CO)cc1`, > 10 µM (inactive). On to `COc1ccc2c3c([nH]c2c1)[C@@H](CO)N(S(=O)(=O)c1cn(C)cn1)CC31CCN(CC2CCCCC2)CC1`, for which the active concentration was > 10 µM (inactive). Turning to `O=C(c1cccc(F)c1)N1CCCCN2[C@@H](CO)[C@@H](c3ccc(C#CC4(O)CCCC4)cc3)[C@@H]2C1`, the active concentration was > 10 µM (inactive). As for `O=C(C[C@H]1CC[C@@H]2[C@H](COC[C@H](O)CN2Cc2ccc(Cl)cc2)O1)NCc1ccccc1Cl`, the figure is > 10 µM (inactive).

In the case of `COc1cccc(NC(=O)Nc2ccc3c(c2)C(=O)N(C)[C@@H]2CC[C@@H](CC(=O)NCCc4ccccc4)O[C@@H]2CO3)c1`, the active concentration was > 10 µM (inactive).

For the compound `CCCNC(=O)N1[C@H](C#N)[C@H](c2ccccc2C2=CCCCC2)[C@@H]1CO`, the active concentration is > 10 µM (inactive). As for `N#C[C@@H]1[C@H](c2ccccc2C2=CCCCC2)[C@H](CO)N1C(=O)C1CCOCC1`, the active concentration was > 10 µM (inactive).

`O=C(Nc1cccc(Cl)c1)N1C[C@@H]2[C@H](c3ccccc31)[C@@H](CO)N2CC1CCOCC1`: the active concentration was > 10 µM (inactive).

As to `O=C(C1CCCCC1)N1CC(=O)N2[C@H](CO)[C@@H](c3ccc(-c4ccccc4F)cc3)[C@H]2C1`, the active concentration is > 10 µM (inactive). In the case of `O=C(c1ccccc1F)N1CC[C@H]2[C@H](CO)Nc3ccc(Br)cc3[C@H]21` it was > 10 µM (inactive). On to `COC(=O)[C@@H]1[C@@H](CO)[C@@H]2Cn3c(ccc(C4=CCCC4)c3=O)[C@@H]2N1C(=O)Cc1cccnc1`, for which the active concentration is > 10 µM (inactive). With `C/C=C/c1ccc([C@H]2[C@H]3CN(S(=O)(=O)c4ccc(OC)cc4)CCCCN3[C@H]2CO)cc1`, the active concentration is > 10 µM (inactive).

Take `Cn1cnc(S(=O)(=O)N2C[C@H](O)COC[C@H]3O[C@@H](CC(=O)NC4CCCC4)CC[C@@H]32)c1`: the active concentration is > 10 µM (inactive). For `CN1C(=O)c2cc(NC(=O)c3ccc(F)c(F)c3)ccc2OC[C@H]2O[C@@H](CC(=O)N[C@@H]3CCN(Cc4ccccc4)C3)CC[C@H]21`, the active concentration is > 10 µM (inactive). In the case of `COc1cccc(CN2CC3(C2)[C@H](c2ccccc2)[C@H](CO)N3C(=O)Cc2ccccc2)c1` it was > 10 µM (inactive); in that of `CC(C)NC(=O)N1CC2(C1)[C@H](c1ccccc1)[C@H](CO)N2Cc1cncnc1`, less than 10 µM; in that of `CC(C)NC(=O)Nc1ccc2c(c1)C(=O)N(C)[C@@H]1CC[C@@H](CC(=O)NCc3ccc(F)cc3)O[C@H]1CO2`, > 10 µM (inactive). As for `O=C(C1CCC1)N1CC2(C1)[C@H](c1ccccc1)[C@H](CO)N2Cc1cccnc1`, the active concentration was > 10 µM (inactive).

Take `Cc1nn(C)cc1NC(=O)C[C@H]1CC[C@@H]2[C@@H](COc3ccc(NC(=O)C4CCOCC4)cc3C(=O)N2C)O1`: the active concentration was > 10 µM (inactive). As for `O=C(C[C@H]1CC[C@H]2[C@@H](COC[C@@H](O)CN2CCc2ccccc2)O1)NCc1ccc(F)cc1`, the figure is > 10 µM (inactive). In the case of `O=C(C[C@@H]1CC[C@@H]2[C@H](COC[C@@H](O)CN2Cc2nccs2)O1)NCc1ccccc1` it was > 10 µM (inactive); in that of `CCC(=O)N1CC2(C1)[C@@H](c1ccc(-c3ccc(F)cc3)cc1)[C@@H](CO)N2C(=O)CC`, > 10 µM (inactive); in that of `O=C(C[C@H]1CC[C@@H]2[C@H](COC[C@@H](O)CN2CC2CC2)O1)NCc1ccc(Cl)cc1`, > 10 µM (inactive). For `O=C(C[C@H]1CC[C@H]2[C@@H](COC[C@H](O)CN2S(=O)(=O)c2ccc(F)cc2)O1)NCC1CC1`, the active concentration is > 10 µM (inactive). As for `O=C(O)[C@H]1[C@H](CO)[C@H]2Cn3c(ccc(-c4ccccc4F)c3=O)[C@@H]1N2C(=O)c1cccnc1`, the figure is > 10 µM (inactive); as for `O=S(=O)(c1ccccc1)N1CCCCN2[C@@H](CO)[C@H](c3ccc(C#CC4CCCC4)cc3)[C@@H]2C1`, > 10 µM (inactive). Consider `CN(C)C(=O)C[C@H]1CC[C@H]2[C@@H](COC[C@H](O)CN2CC2CCCC2)O1`, for which the active concentration is > 10 µM (inactive). As for `CN(C)C(=O)C[C@@H]1CC[C@@H]2[C@H](COC[C@H](O)CN2CC2CC2)O1`, the figure is > 10 µM (inactive); as for `COc1ccccc1CN1[C@H](CO)[C@H]2c3ccccc3N(C(=O)C3CCCCC3)C[C@H]21`, > 10 µM (inactive); as for `O=C(c1cccnc1)N1C[C@H]2[C@@H](c3ccccc31)[C@@H](CO)N2C(=O)CN1CCOCC1`, > 10 µM (inactive). For the compound `O=C(c1ccccc1F)N1CC(=O)N2[C@H](CO)[C@@H](c3ccc(C#Cc4ccccc4)cc3)[C@H]2C1`, the active concentration is > 10 µM (inactive). As for `CCS(=O)(=O)N1[C@H](CO)[C@@H](c2ccccc2)C12CN(C(=O)C1CCCCC1)C2`, the figure is > 10 µM (inactive); as for `C/C=C/c1ccc([C@@H]2[C@H]3CN(Cc4ccc(F)cc4)CC(=O)N3[C@H]2CO)cc1`, > 10 µM (inactive); as for `O=C(Cc1ccccn1)N1[C@H](CO)[C@@H]2c3ccccc3NC[C@@H]21`, > 10 µM (inactive).

As for `CN1c2ccc(-c3cccc(F)c3)cc2[C@@H]2[C@@H](CCN2C(=O)c2ccccc2F)[C@@H]1CO`, the active concentration was > 10 µM (inactive). Turning to `CN1C(=O)c2cc(NC(=O)Cc3cccs3)ccc2OC[C@@H]2O[C@@H](CC(=O)N[C@H]3CCN(Cc4ccccc4)C3)CC[C@H]21`, the active concentration was > 10 µM (inactive). As for `COc1ccccc1C(=O)Nc1ccc2c(c1)C(=O)N(C)[C@@H]1CC[C@H](CC(=O)NCCc3ccncc3)O[C@@H]1CO2`, the active concentration is > 10 µM (inactive). In the case of `O=C(C[C@H]1CC[C@H]2[C@@H](COC[C@H](O)CN2C(=O)c2cccnc2)O1)NCc1ccccc1`, the active concentration was > 10 µM (inactive).

On to `O=C(C[C@@H]1CC[C@H]2[C@@H](COC[C@H](O)CN2CCC(F)(F)F)O1)NCC1CC1`, for which the active concentration is > 10 µM (inactive). For `COc1cccc(CN2[C@H](CO)[C@@H](c3ccccc3)C23CN(Cc2ccccc2OC)C3)c1`, the active concentration is > 10 µM (inactive).
